{
  "source": "patent US7122523B2",
  "about": "“Methods for inhibiting tumor cell proliferation” (University of Southern California, priority 2001, dated 2006)",
  "type_in_all_cases": "cell-based",
  "key": {"[1]": {"tested_on": "Squamous Cell Carcinoma of the Cervix, gr 3", "assay": "Human tumor cell clonigenic assay (tritiated thymidine incorporation)", "conditions": "Sample 12, Squamous Cell Carcinoma of the Cervix, AII(1–7) 0.1 ng/ml–10 μg/ml", "protocol": "(§1) Primary and metastatic tumors obtained from the Department of Obstetrics and Gynecology Pathology Section and the Surgical Pathology Division of Los Angeles County/University of Southern California were minced into pieces less than 2 mm in diameter in the presence of RPMI-1640 (Gibco, Grand Island, NTY) containing 15% heat-inactivated fetal calf serum. Each gram of tumor tissue was treated with 10–20 mL of enzyme medium, consisting of Hanks' balanced salt solution with 0.03% DNAse (500 Kunitz units/mL; Sigma Chemical Co., St. Louis, Mo.) and 0.14% collagenase type I (Sigma). Tumor fragments were stirred for 90 minutes at 37° C. in the presence of 5% CO2. After enzymatic digestion, the free cells were decanted through 40-gauge mesh strainers and centrifuged at 200×g for 10 minutes. The supernatant was removed and viable cells were resuspended in RPMI 1640. The cell number was determined using a hematocytometer and 0.04% trypan blue dye. The cells were then centrifuged and the pellet resuspended in RPMI 1640 at 5×10^5 cells/mL.\n(§2) Human cancer cells were obtained from operative specimens provided by the Division of Gynecologic Oncology, Department of Obstetrics and Gynecology, or the Department of Surgical Pathology of Los Angeles County/University of Southern California School of Medicine. Tumor cells were maintained in vitro in RPMI 1640 medium supplemented with 15% heat-inactivated fetal calf serum, 100 μg/mL streptomycin, fungizone 25 μg/mL, and 100 μ/mL penicillin.\n(§3) Cells were cultured on an underlayer of 0.5% agarose (Bethesda Research Labs, Bethesda, Md.) prepared from a 3% stock of agarose with added penicillin (100 units/mL), streptomycin (100 μg/mL), and fungizone (1.25 μg/mL) (GIBCO) as per a modification of an established procedure. The cloning efficiency of this assay varied depending upon the source of the tissue. One milliliter of this 0.5% agarose mixture was added to each 16×16-mm well of a 24-well plate and the plates were refrigerated for 10 minutes at 4° C. Cells were suspended in 0.6% agarose in RPMI-1640 supplemented with antibiotics and 15% fetal calf serum. One aliquot (0.5 mL) of cell suspension was added to each underlaver at a final concentration of 5×10^4 cells/well, and the plates were refrigerated 10 minutes at 4° C.\n(§4) After a 72-hour incubation at 37° C., 5 μCi of tritiated thymidine (specific activity 18.2 Ci/mmol; New England Nuclear, Boston, Mass.) was layered over each well, and the plates were returned to the incubator for an additional 24 hours, incorporation of thymidine was terminated by transferring the agarose layers to 10-mL glass centrifuge tubes (Kimble, Division of Owens, Ill.) and boiling the tubes for 15 minutes in a water bath. The volume was brought to 8 mL, the tubes were centrifuged, and the pellets were washed with phosphate-buffered saline and then dissolved in 3 mL of 0.85 N KOH for 1 hour at 80° C. The tubes were cooled on ice and the hydrolysates were precipitated by adding 30 μL of 1% human serum albumin (Sigma) and 2.4 mL of ice-cold trichloroacetic acid. After overnight storage at 4° C., precipitates were collected by centrifugation. Pellets were washed with 5% trichloroacetic acid, dissolved in 0.3 mL of 0.075 N KOH, and transferred to scintillation vials to which 5 mL of Liquiscint (National Diagnostics, Somerville, N.J.) were added. Radioactivity per vial was measured in a Nuclear-Chicago liquid scintillation counter."}, "[2]": {"tested_on": "Recurrent moderately differentiated colonic adenocarcinoma", "assay": "Human tumor cell clonigenic assay (tritiated thymidine incorporation)", "conditions": "Sample 19, Recurrent moderately differentiated colonic adenocarcinoma; AII(1–7) 0.1 ng/ml–10 μg/ml", "protocol": "as §1, §2, §3, §4"}, "[3]": {"tested_on": "Cystic poorly differentiated endometroid carcinoma of ovary", "assay": "Human tumor cell clonigenic assay (tritiated thymidine incorporation)", "conditions": "Sample 30, Cystic poorly differentiated endometroid carcinoma of ovary; AII(1–7) 0.1 ng/ml–10 μg/ml", "protocol": "as §1, §2, §3, §4"}, "[4]": {"tested_on": "Breast adenocarcinoma", "assay": "Human tumor cell clonigenic assay (tritiated thymidine incorporation)", "conditions": "for Effect of AII(1–7) on proliferation: AII(1–7) 0.1 ng/ml–10 μg/ml; for IC50 (ng/ml) of AII(1–7): proliferation", "protocol": "as §1, §2, §3, §4"}, "[5]": {"tested_on": "Colon adenocarcinoma", "assay": "Human tumor cell clonigenic assay (tritiated thymidine incorporation)", "conditions": "Sample 25, Colon adenocarcinoma", "protocol": "as §1, §2, §3, §4"}, "[6]": {"tested_on": "Cervical squamous cell carcinoma", "assay": "Human tumor cell clonigenic assay (tritiated thymidine incorporation)", "protocol": "as §1, §2, §3, §4"}, "[7]": {"tested_on": "Metastatic, recurrent moderately to poorly differentiated colonic adenocarcinoma", "assay": "Human tumor cell clonigenic assay (tritiated thymidine incorporation)", "conditions": "Sample 34, Metastatic, AII(1–7) 0.1 ng/ml–10 μg/ml", "protocol": "as §1, §2, §3, §4"}, "[8]": {"tested_on": "Human Primary Tumor Cells", "assay": "Clonigenic assay, Chi Square analysis of tumor-type specificity over all samples", "protocol": "as §1, §2, §3, §4"}, "[9]": {"conditions": "Sample 7, Breast adenocarcinoma"}, "[10]": {"conditions": "Sample 10, Breast adenocarcinoma"}, "[11]": {"conditions": "Sample 20, Breast adenocarcinoma"}, "[12]": {"conditions": "Sample 21, Breast adenocarcinoma"}, "[13]": {"conditions": "Sample 24, Breast adenocarcinoma"}, "[14]": {"conditions": "Sample 28, Breast adenocarcinoma"}},
  "data": [
    {"smiles": "CC[C@H](C)[C@H](NC(=O)[C@H](Cc1ccc(O)cc1)NC(=O)[C@@H](NC(=O)[C@H](CCCNC(=N)N)NC(=O)[C@@H](N)CC(=O)O)C(C)C)C(=O)N[C@@H](Cc1c[nH]cn1)C(=O)N1CCC[C@H]1C(=O)O", "note": "[AII(1–7), Asp-Arg-Val-Tyr-Ile-His-Pro]", "values": [
      {"measurement": "Effect of AII(1–7) on proliferation", "setting": "[1]", "value": "No Effect"},
      {"measurement": "Effect of AII(1–7) on proliferation", "setting": "[2]", "value": "No Effect"},
      {"measurement": "Effect of AII(1–7) on proliferation", "setting": "[3]", "value": "No Effect"},
      {"measurement": "Effect of AII(1–7) on proliferation", "setting": "[4]; [9]", "value": "Decreased"},
      {"measurement": "IC50 (ng/ml) of AII(1–7)", "setting": "[4]; [9]", "value": 2.73, "unit": "ng/mL"},
      {"measurement": "Effect of AII(1–7) on proliferation", "setting": "[4]; [10]", "value": "No Effect"},
      {"measurement": "IC50 (ng/ml) of AII(1–7)", "setting": "[4]; [10]", "value": "No Effect"},
      {"measurement": "Effect of AII(1–7) on proliferation", "setting": "[4]; [11]", "value": "Decreased"},
      {"measurement": "IC50 (ng/ml) of AII(1–7)", "setting": "[4]; [11]", "value": 0.3, "unit": "ng/mL"},
      {"measurement": "Effect of AII(1–7) on proliferation", "setting": "[4]; [12]", "value": "No Effect"},
      {"measurement": "IC50 (ng/ml) of AII(1–7)", "setting": "[4]; [12]", "value": "No Effect"},
      {"measurement": "Effect of AII(1–7) on proliferation", "setting": "[4]; [13]", "value": "Decreased"},
      {"measurement": "IC50 (ng/ml) of AII(1–7)", "setting": "[4]; [13]", "value": 4.25, "unit": "ng/mL"},
      {"measurement": "Effect of AII(1–7) on proliferation", "setting": "[4]; [14]", "value": "Decreased"},
      {"measurement": "IC50 (ng/ml) of AII(1–7)", "setting": "[4]; [14]", "value": 2.97, "unit": "ng/mL"},
      {"measurement": "Effect of AII(1–7) on proliferation", "setting": "[5]; AII(1–7) 0.1 ng/ml–10 μg/ml", "value": "Decreased"},
      {"measurement": "IC50 (ng/ml) of AII(1–7)", "setting": "[5]; proliferation", "value": 4.75, "unit": "ng/mL"},
      {"measurement": "IC50 (ng/ml) of AII(1–7)", "setting": "[6]; Sample 37, Cervical squamous cell adenocarcinoma, proliferation", "value": 2.73, "unit": "ng/mL"},
      {"measurement": "Effect of AII(1–7) on proliferation", "setting": "[6]; Sample 37, Cervical squamous cell carcinoma, AII(1–7) 0.1 ng/ml–10 μg/ml", "value": "Decreased"},
      {"measurement": "Effect of AII(1–7) on proliferation", "setting": "[7]", "value": "No Effect"},
      {"measurement": "tumors affected (proliferation decreased)", "setting": "[8]; All adenocarcinoma: 14 decreased, 8 not affected", "value": 63.6, "unit": "%"},
      {"measurement": "tumors affected (proliferation decreased)", "setting": "[8]; Breast infiltrating ductal adenocarcinoma: 4 decreased, 2 not affected", "value": 66.7, "unit": "%"},
      {"measurement": "tumors affected (proliferation decreased)", "setting": "[8]; Uterine adenocarcinoma and breast infiltrating ductal adenocarcinoma: 9 decreased, 4 not affected", "value": 69.2, "unit": "%"},
      {"measurement": "tumors affected (proliferation decreased)", "setting": "[8]; Uterine adenocarcinoma: 5 decreased, 2 not affected", "value": 71.4, "unit": "%"},
      {"measurement": "tumors with decreased proliferation", "setting": "[8]; Uterine, ovarian and breast adenocarcinomas: 11 decreased, 5 not affected", "value": 68.8, "unit": "%"},
      {"measurement": "tumors affected (proliferation decreased)", "setting": "[8]; remaining tumors not adenocarcinoma: 2 decreased, 10 not affected", "value": 16.7, "unit": "%"},
      {"measurement": "tumors affected (proliferation decreased)", "setting": "[8]; remaining tumors not of breast infiltrating ductal adenocarcinoma origin: 12 decreased, 16 not affected", "value": 42, "unit": "%"},
      {"measurement": "tumors affected (proliferation decreased)", "setting": "[8]; remaining tumors not of uterine adenocarcinoma origin: 11 decreased, 16 not affected", "value": 40.7, "unit": "%"},
      {"measurement": "tumors affected (proliferation decreased)", "setting": "[8]; remaining tumors not of uterine or breast adenocarcinoma origin: 7 decreased, 14 not affected", "value": 33.3, "unit": "%"},
      {"measurement": "tumors with decreased proliferation", "setting": "[8]; remaining tumors not of uterine, ovarian or breast adenocarcinoma origin: 5 decreased, 13 not affected", "value": 27.8, "unit": "%"}
    ]}
  ]
}
